Data on 5 molecules can be found in ChEMBL document CHEMBL2396653, “Synthesis and antimycobacterial evaluation of N-substituted 5-chloropyrazine-2-carboxamides” (Bioorg Med Chem Lett, 2013).

Values after ≈ are worked out from the molar mass of the structure shown. Active and inactive are the calls of the source.

Data set [1] concerns Trichophyton mentagrophytes. Put plainly: Antifungal activity against Trichophyton mentagrophytes 445 assessed as growth inhibition after 72 to 120 hrs by microbroth dilution method. In kind it is functional, organism-based. (Dilution methods test growth across graded concentrations, often in twofold steps.)
Another data set deals with Enterococcus. As to the kind of experiment: Antibacterial activity against Enterococcus sp. J 14365/08 clinical isolate assessed as growth inhibition after 24 to 48 hrs by microbroth dilution method. In kind it is functional, organism-based.
For the next data set, the system named is Nakaseomyces glabratus. As to the kind of experiment: Antifungal activity against Candida glabrata 20/I assessed as growth inhibition after 24 to 48 hrs by microbroth dilution method. In kind it is functional, organism-based.
For another data set, the system named is Trichosporon asahii. As to the kind of experiment: Antifungal activity against Trichosporon asahii 1188 assessed as growth inhibition after 24 to 48 hrs by microbroth dilution method. In kind it is functional, organism-based.
The next data set concerns Aspergillus fumigatus. As to the kind of experiment: Antifungal activity against Aspergillus fumigatus 231 assessed as growth inhibition after 24 to 48 hrs by microbroth dilution method. In kind it is functional, organism-based.
Data set [2] in a line: Stability of the compound at pH 7. In kind it is physicochemical. Particulars: buffer.
In another data set the test system is Pseudomonas aeruginosa. Put plainly: Antibacterial activity against Pseudomonas aeruginosa CCM 1961 assessed as growth inhibition after 24 to 48 hrs by microbroth dilution method. In kind it is functional, organism-based.
The test system of another data set is Escherichia coli. Put plainly: Antibacterial activity against Escherichia coli CCM 4517 assessed as growth inhibition after 24 to 48 hrs by microbroth dilution method. In kind it is functional, organism-based.
The test system of data set [3] is Klebsiella pneumoniae. Put plainly: Antibacterial activity against ESBL-positive Klebsiella pneumoniae J 14368/08 clinical isolate assessed as growth inhibition after 24 to 48 hrs by microbroth dilution method. In kind it is functional, organism-based.
The subject of data set [4] is Staphylococcus aureus. As to the kind of experiment: Antibacterial activity against methicillin-resistant Staphylococcus aureus H 5996/08 clinical isolate assessed as growth inhibition after 24 to 48 hrs by microbroth dilution method. In kind it is functional, organism-based.
Data set [5] deals with Mycobacterium tuberculosis. As to the kind of experiment: Antimycobacterial activity against Mycobacterium tuberculosis H37Rv assessed as growth inhibition after 14 days by microdilution method. In kind it is functional. As to conditions: 336 h.
Data set [6] relates to Mycobacterium avium. Put plainly: Antimycobacterial activity against Mycobacterium avium CNCTC My 80/72 assessed as growth inhibition after 14 days by microdilution method. As to conditions: CNCTC My 80/72, 336 h. In kind it is functional.
For a further data set, the system named is Lichtheimia corymbifera. As to the kind of experiment: Antifungal activity against Absidia corymbifera 272 assessed as growth inhibition after 24 to 48 hrs by microbroth dilution method. In kind it is functional, organism-based.
Data set [7] concerns Mycobacterium avium. Put plainly: Antimycobacterial activity against Mycobacterium avium CNCTC My 152/73 assessed as growth inhibition after 14 days by microdilution method. In kind it is functional. As to conditions: CNCTC My 152/73, 336 h.
Data set [8] has as its system Klebsiella pneumoniae. As to the kind of experiment: Antibacterial activity against Klebsiella pneumoniae D 11750/08 clinical isolate assessed as growth inhibition after 24 to 48 hrs by microbroth dilution method. In kind it is functional, organism-based.
A further data set deals with Candida albicans. As to the kind of experiment: Antifungal activity against Candida albicans ATCC 44859 assessed as growth inhibition after 24 to 48 hrs by microbroth dilution method. In kind it is functional, organism-based.
Data set [9] relates to Mycobacterium tuberculosis. As to the kind of experiment: Ratio of pyrazinamide MIC to compound MIC for Mycobacterium tuberculosis H37Rv. In kind it is functional.
The test system of the next data set is Candida tropicalis. Put plainly: Antifungal activity against Candida tropicalis 156 assessed as growth inhibition after 24 to 48 hrs by microbroth dilution method. In kind it is functional, organism-based.
Data set [10] in a line: Lipophilicity, log K of the compound by HPLC analysis. In kind it is physicochemical.
Data set [11] concerns Mycobacterium kansasii. Put plainly: Antimycobacterial activity against Mycobacterium kansasii CNCTC My 235/80 assessed as growth inhibition after 14 days by microdilution method. In kind it is functional. As to conditions: CNCTC My 235/80, 336 h.
For data set [12], the system named is Staphylococcus aureus. Put plainly: Antibacterial activity against Staphylococcus aureus CCM 4516/08 assessed as growth inhibition after 24 to 48 hrs by microbroth dilution method. In kind it is functional, organism-based.
Data set [13] relates to Staphylococcus epidermidis. Put plainly: Antibacterial activity against Staphylococcus epidermidis H 6966/08 clinical isolate assessed as growth inhibition after 24 to 48 hrs by microbroth dilution method. In kind it is functional, organism-based.
For a further data set, the system named is Pichia kudriavzevii. As to the kind of experiment: Antifungal activity against Candida krusei E28 assessed as growth inhibition after 24 to 48 hrs by microbroth dilution method. In kind it is functional, organism-based.
Data set [14] concerns Mycobacterium tuberculosis. Put plainly: Antimycobacterial activity against pyrazinamide-susceptible Mycobacterium tuberculosis ATCC 27294 assessed as growth inhibition after 24 hrs to 2 weeks by microbroth dilution method. In kind it is functional.
For data set [15], the system named is Mycobacterium kansasii. As to the kind of experiment: Antimycobacterial activity against pyrazinamide-resistant Mycobacterium kansasii assessed as growth inhibition after 24 hrs to 2 weeks by microbroth dilution method. In kind it is functional.
The test system of data set [16] is Mycolicibacterium fortuitum. Put plainly: Antimycobacterial activity against pyrazinamide-resistant Mycobacterium fortuitum ATCC 49403 assessed as growth inhibition after 24 hrs to 2 weeks by microbroth dilution method. In kind it is functional.
Data set [17] relates to Mycolicibacterium fortuitum. As to the kind of experiment: Antimycobacterial activity against pyrazinamide-resistant Mycobacterium fortuitum ATCC 49601 assessed as growth inhibition after 24 hrs to 2 weeks by microbroth dilution method. In kind it is functional.
Data set [18] concerns Mycobacterium tuberculosis. Put plainly: Antimycobacterial activity against pyrazinamide-susceptible Mycobacterium tuberculosis ATCC 35801 assessed as growth inhibition after 24 hrs to 2 weeks by microbroth dilution method. In kind it is functional.

Take `O=C(NCc1ccc(Cl)cc1Cl)c1cnc(Cl)cn1`: the “growth inhibition (GI)” value (in data set [1]; in the data set on Enterococcus; with Nakaseomyces glabratus; in the data set with Trichosporon asahii; with Aspergillus fumigatus; with Pseudomonas aeruginosa) was “inactive” each time. The “growth inhibition (GI)” value in the data set with Escherichia coli, in the data set on Klebsiella pneumoniae [3], with Staphylococcus aureus [4], in the data set on Lichtheimia corymbifera, in the data set on Klebsiella pneumoniae [8] and with Candida albicans was “inactive” throughout. The “growth inhibition (GI)” value (in the data set on Candida tropicalis; in the data set on Staphylococcus aureus [12]; in data set [13]; in the data set on Pichia kudriavzevii) was “inactive” in each case. The Stability entry in [2] is “Stable”. Besides, the MIC is 12.5 µg/mL (≈ 39.5 µM) in [5], over 100 µg/mL in the data set on Mycobacterium avium [6], over 100 µg/mL in the data set with Mycobacterium avium [7] and over 100 µg/mL in the data set with Mycobacterium kansasii [11]. In addition, the Ratio in [9] is on record as 3. The “log K” value in data set [10] is 0.727.
On to `NC(=O)c1cnc(Cl)cn1`, for which the minimal inhibitory concentration (MIC) in [14] stood at 16 µg/mL (≈ 102 µM); in the data set with Mycobacterium kansasii [15] it was 8 µg/mL (≈ 50.8 µM); in [16], 8 µg/mL (≈ 50.8 µM); in [17] it was 8 µg/mL (≈ 50.8 µM); in data set [18] it was 16 µg/mL (≈ 102 µM).
For the molecule `O=C(Nc1cccc(Cl)c1)c1cnc(Cl)cn1`, the “growth inhibition (GI)” value (in [1]; with Enterococcus; in the data set on Nakaseomyces glabratus; in the data set with Trichosporon asahii; in the data set on Aspergillus fumigatus; in the data set on Pseudomonas aeruginosa) was “inactive” throughout. In addition, the “growth inhibition (GI)” value in the data set with Escherichia coli, with Klebsiella pneumoniae [3], in the data set with Staphylococcus aureus [4], in the data set on Lichtheimia corymbifera, in the data set with Klebsiella pneumoniae [8] and in the data set on Candida albicans was “inactive” in each case. The “growth inhibition (GI)” value (with Candida tropicalis; in the data set on Staphylococcus aureus [12]; in [13]; with Pichia kudriavzevii) was “inactive” throughout. Besides, in data set [2], the Stability result is “Stable”. In addition, the MIC in data set [5] was 3.13 µg/mL (≈ 11.7 µM); with Mycobacterium avium [6] it was 25 µg/mL (≈ 93.2 µM); in the data set with Mycobacterium avium [7], 25 µg/mL (≈ 93.2 µM); in the data set on Mycobacterium kansasii [11], 25 µg/mL (≈ 93.2 µM). In data set [10], the “log K” value worked out at 0.5873.
For the molecule `O=C(NCc1cccc([N+](=O)[O-])c1)c1cnc(Cl)cn1`, the “growth inhibition (GI)” value (in [1]; in the data set on Enterococcus; in the data set on Nakaseomyces glabratus; in the data set on Trichosporon asahii; with Aspergillus fumigatus; in the data set on Pseudomonas aeruginosa) was “inactive” in each case. Further, the “growth inhibition (GI)” value in the data set on Escherichia coli, with Klebsiella pneumoniae [3], in the data set with Staphylococcus aureus [4], in the data set on Lichtheimia corymbifera, in the data set with Klebsiella pneumoniae [8] and in the data set with Candida albicans was “inactive” throughout. In addition, the “growth inhibition (GI)” value (with Candida tropicalis; in the data set on Staphylococcus aureus [12]; in data set [13]; in the data set on Pichia kudriavzevii) was “inactive” each time. The Stability result in [2] is given as “Stable”. The MIC in data set [5] was over 100 µg/mL; in the data set on Mycobacterium avium [6], over 100 µg/mL; in the data set with Mycobacterium avium [7], over 100 µg/mL; with Mycobacterium kansasii [11], 12.5 µg/mL (≈ 42.7 µM). Also, in [10], the “log K” value came to 0.1189.
As for `O=C(NCc1ccc(Br)cc1)c1cnc(Cl)cn1`, the “growth inhibition (GI)” value (in data set [1]; in the data set on Enterococcus; in the data set on Nakaseomyces glabratus; in the data set on Trichosporon asahii; with Aspergillus fumigatus; with Pseudomonas aeruginosa) was “inactive” in each case. Further, the “growth inhibition (GI)” value with Escherichia coli, in the data set on Klebsiella pneumoniae [3], in the data set on Staphylococcus aureus [4], in the data set with Lichtheimia corymbifera, in the data set with Klebsiella pneumoniae [8] and in the data set on Candida albicans was “inactive” each time. Further, the “growth inhibition (GI)” value (in the data set on Candida tropicalis; in the data set with Staphylococcus aureus [12]; in data set [13]; in the data set on Pichia kudriavzevii) was “inactive” throughout. Also, the Stability result in data set [2] was “Stable”. The MIC is 12.5 µg/mL (≈ 38.3 µM) in [5], over 100 µg/mL in the data set on Mycobacterium avium [6], over 100 µg/mL in the data set on Mycobacterium avium [7] and 50 µg/mL (≈ 153 µM) in the data set with Mycobacterium kansasii [11]. Also, the Ratio in [9] amounted to 3. The “log K” value in data set [10] was 0.4981.

For orientation: MIC means the smallest concentration in the dilution series that meets the test's criterion for growth inhibition.
